From patent US8952024B2, “Herbicidal pyrimidone derivatives” (E I du Pont de Nemours and Company, priority 2009, dated 2015)

How the values were obtained:
Experiment in all cases: Test B pre-/postemergence plant response
Type in all cases: in vivo
[1] = tested on: downy bromegrass (Bromus tectorum)
Method in brief: (§1)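 Steps: sow seed in loam–sand soil and spray preemergence, or grow plants in peat-based medium to 1–4 leaves (2–18 cm) and spray postemergence; formulation is non-phytotoxic solvent plus surfactant; hold in greenhouse 13–15 days; score visually vs controls, 0 = no effect, 100 = complete control.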

[2] = tested on: green foxtail (Setaria viridis)
Method in brief: as §1

[3] = tested on: giant foxtail (Setaria faberii)
Method in brief: as §1

[4] = tested on: bermudagrass (Cynodon dactylon)
Method in brief: as §1

[5] = tested on: yellow nutsedge (Cyperus esculentus)
Method in brief: as §1

[6] = tested on: morningglory (Ipomoea coccinea)
Method in brief: as §1

[7] = tested on: large crabgrass (Digitaria sanguinalis)
Method in brief: as §1

[8] = tested on: woolly cupgrass (Eriochloa villosa)
Method in brief: as §1

[9] = tested on: Surinam grass (Brachiaria decumbens)
Method in brief: as §1

[10] = tested on: blackgrass (Alopecurus myosuroides)
Method in brief: as §1

[11] = tested on: lambsquarters (Chenopodium album)
Method in brief: as §1

corn (Zea mays) = tested on: corn (Zea mays)
Method in brief: as §1

[12] = tested on: Italian ryegrass (Lolium multiflorum)
Method in brief: as §1

[13] = 31 g ai/ha, postemergence, scale 0 to 100, 0 is no effect, 100 is complete control
[14] = 62 g ai/ha, postemergence, 0 is no effect, 100 is complete control, 13 to 15 days
[15] = Postemergence, 125 g ai/ha, scale 0 to 100 (0 no effect, 100 complete control)
[16] = Postemergence, 250 g ai/ha, scale 0 to 100 (0 no effect, 100 complete control)
[17] = Preemergence, 31 g ai/ha, scale 0 to 100 (0 no effect, 100 complete control)
[18] = Preemergence, 62 g ai/ha, scale 0 to 100 (0 no effect, 100 complete control)
[19] = Preemergence, 125 g ai/ha, scale 0 to 100, 0 no effect, 100 complete control
[20] = Preemergence, 250 g ai/ha, 0 to 100 scale

COCCCn1c(-c2cc(F)cc(F)c2)ncc(C(=O)C2=C(O)CCCC2=O)c1=O [Compound 120]
0: Plant response rating, Morningglory [6, 17] | Plant response rating, Corn (corn (Zea mays); [17])
25: Plant response rating, Corn (corn (Zea mays); [19])
55: Corn plant response rating (corn (Zea mays); [20])
95: Foxtail, Green plant response rating (0 to 100 scale) [2, 14] | Plant response rating, Foxtail, Green [2, 15] | Plant response rating, Foxtail, Green [2, 17] | Bermudagrass plant response rating (0 to 100 scale) [4, 14] | Plant response rating, Crabgrass, Large [7, 15]
70: Plant response rating, Nutsedge, Yellow [5, 17] | Plant response rating, Cupgrass, Woolly [8, 13] | Plant response rating, Cupgrass, Woolly [8, 18]
10: Plant response rating, Bromegrass, Downy [1, 17]
75: Plant response rating, Foxtail, Giant [3, 13] | Plant response rating, Foxtail, Giant [3, 17] | Plant response rating, Nutsedge, Yellow [5, 16] | Cupgrass, Woolly plant response rating (0 to 100 scale) [8, 14] | Plant response rating, Cupgrass, Woolly [8, 19] | Plant response rating, Corn (corn (Zea mays); [16])
50: Morningglory plant response rating (0 to 100 scale) [6, 14] | Plant response rating, Cupgrass, Woolly [8, 17] | Plant response rating, Blackgrass [10, 18] | Plant response rating, Blackgrass [10, 19] | Blackgrass plant response rating [10, 20] | Plant response rating, Corn (corn (Zea mays); [15])
98: Plant response rating, Foxtail, Green [2, 18] | Plant response rating, Foxtail, Giant [3, 16] | Plant response rating, Foxtail, Giant [3, 18] | Plant response rating, Foxtail, Giant [3, 19] | Plant response rating, Bermudagrass [4, 15] | Plant response rating, Bermudagrass [4, 16] | Plant response rating, Nutsedge, Yellow [5, 19] | Nutsedge, Yellow plant response rating [5, 20] | Plant response rating, Crabgrass, Large [7, 16] | Plant response rating, Crabgrass, Large [7, 17] | Plant response rating, Lambsquarters [11, 15]
100: Plant response rating, Foxtail, Green [2, 16] | Plant response rating, Foxtail, Green [2, 19] | Foxtail, Green plant response rating [2, 20] | Foxtail, Giant plant response rating [3, 20] | Plant response rating, Bermudagrass [4, 17] | Plant response rating, Bermudagrass [4, 18] | Plant response rating, Bermudagrass [4, 19] | Bermudagrass plant response rating ([4]; Preemergence, 250 g ai/ha, 0 to 100 scale, 0 no effect, 100 complete control) | Morningglory plant response rating [6, 20] | Plant response rating, Crabgrass, Large [7, 18] | Plant response rating, Crabgrass, Large [7, 19] | Crabgrass, Large plant response rating [7, 20] | Plant response rating, Cupgrass, Woolly [8, 15] | Plant response rating, Cupgrass, Woolly [8, 16] | Plant response rating, Surinam Grass [9, 15] | Plant response rating, Surinam Grass [9, 16] | Plant response rating, Surinam Grass [9, 17] | Plant response rating, Surinam Grass [9, 18] | Plant response rating, Surinam Grass [9, 19] | Surinam Grass plant response rating [9, 20] | Plant response rating, Lambsquarters [11, 16] | Plant response rating, Lambsquarters [11, 17] | Plant response rating, Lambsquarters [11, 18] | Plant response rating, Lambsquarters [11, 19] | Lambsquarters plant response rating [11, 20] | Plant response rating, Ryegrass, Italian [12, 17] | Plant response rating, Ryegrass, Italian [12, 18] | Plant response rating, Ryegrass, Italian [12, 19] | Ryegrass, Italian plant response rating [12, 20]
35: Nutsedge, Yellow plant response rating (0 to 100 scale) [5, 14]
85: Bromegrass, Downy plant response rating [1, 20] | Plant response rating, Foxtail, Giant [3, 15] | Crabgrass, Large plant response rating (0 to 100 scale) [7, 14] | Surinam Grass plant response rating (0 to 100 scale) [9, 14] | Lambsquarters plant response rating (0 to 100 scale) [11, 14]
90: Plant response rating, Foxtail, Green [2, 13] | Plant response rating, Nutsedge, Yellow [5, 18] | Plant response rating, Morningglory [6, 16] | Plant response rating, Morningglory [6, 18] | Plant response rating, Morningglory [6, 19] | Cupgrass, Woolly plant response rating [8, 20]
5: Plant response rating, Nutsedge, Yellow [5, 13] | Plant response rating, Blackgrass [10, 17]
40: Ryegrass, Italian plant response rating (0 to 100 scale) [12, 14]
30: Plant response rating, Bromegrass, Downy [1, 18] | Plant response rating, Bromegrass, Downy [1, 19] | Plant response rating, Blackgrass [10, 13] | Blackgrass plant response rating (0 to 100 scale) [10, 14]
20: Plant response rating, Bromegrass, Downy [1, 13] | Corn plant response rating (0 to 100 scale) (corn (Zea mays); [14])
15: Plant response rating, Morningglory [6, 13] | Plant response rating, Corn (corn (Zea mays); [13])
80: Plant response rating, Bromegrass, Downy [1, 16] | Foxtail, Giant plant response rating (0 to 100 scale) [3, 14] | Plant response rating, Bermudagrass [4, 13] | Plant response rating, Morningglory [6, 15] | Plant response rating, Crabgrass, Large [7, 13] | Plant response rating, Lambsquarters [11, 13] | Plant response rating, Ryegrass, Italian [12, 16]
60: Bromegrass, Downy plant response rating (0 to 100 scale) [1, 14] | Plant response rating, Bromegrass, Downy [1, 15] | Plant response rating, Blackgrass [10, 15] | Plant response rating, Blackgrass [10, 16] | Plant response rating, Ryegrass, Italian [12, 15]
65: Plant response rating, Nutsedge, Yellow [5, 15]
